US11286463B2, “Reprogramming of aged adult stem cells” (priority 2012, dated 2022)

System: 84 genes reported to be linked to cellular aging, epigenetics and senescence
Assay: qPCR gene array of AASC in transwell culture with YASC
Format: cell-based, human
Settings: 5 μM manumycin
Method: In an embodiment, the methods of the present disclosure further comprise exposure of AASCs to the Intracellular Matrix (ICM) of the YASCs through placement of a transwell culture insert containing YASC into the tissue culture dish chamber. Mobilized PBMCs (1×10^7) from the second subjects are added to the outer well of 12-well transwell cultures containing a […] BD Falcon™ insert. Any membrane insert able to provide a cell-free filtrate to cultures of AASCs may be employed. In parallel, mobilized PBMCs (1×10^7) from the first subjects are added to the inner well of the 12-well plate. Cells may then be cultivated in a suitable media (e.g., RPMI-1640 (Gibco) supplemented with 10% fetal calf serum (FCS) and β-mercaptoethanol (β-ME)) for a time period of the type disclosed herein (e.g., 8-weeks), under standard culture conditions (e.g., 50% media changed every 4 days).
For experiments investigating the contribution of exosomes as the membrane-permeable factors responsible for AASC reprogramming (i.e reprogramming agents), the exosomal inhibitor manumycin A (Sigma-Aldrich) can be added to the culture media at a final concentration of 5 μM at days 0 and 14 of the cultivation period.
AASC reprogramming was carried out using the one-step process depicted in the middle workflow of FIGS. 1 and 2. […]

## CCCC[C@@H](C)/C=C(C)/C=C(\C)C(=O)NC1=C[C@@](O)(/C=C/C=C/C=C/C(=O)NC2=C(O)CCC2=O)[C@@H]2O[C@@H]2C1=O [manumycin, -[(1S,5S,6R)-5-hydroxy-5-[(1E,3E,5E)-7-[(2-hydroxy-5-oxo-1-cyclopenten-1-yl)amino]-7-oxo-1,3,5-heptatrien-1-yl]-2-oxo-7-oxabicyclo[4.1.0]hept-3-en-3-yl]-2E,4E,6R-trimethyl,2,4-decadienamide]
  gene expression levels of AASC co-cultured with YASC compared to absence of manumycin: displayed changes in gene expression levels
